# From ChEMBL document CHEMBL1201862, “PubChem BioAssay data set” (2004)
# The source made the active and inactive calls.
# Assays:
# SUMO-activating enzyme [1] = target: T1, SUMO-activating enzyme (Homo sapiens, UniProt Q9UBT2); assay: SUMOylation inhibitor hit validation, confirmation, SUMOylation inhibitor project, biochemical, AlphaScreen (AID 2018); format: functional
# SUMO-activating enzyme [2] = target: T1, SUMO-activating enzyme; assay: inhibitors of in vitro SUMOylation cascade, primary screen, biochemical, HTRF, uHTS (AID 2006); format: protein-complex assay
# Genome polyprotein = Genome polyprotein (Hepatitis C virus, UniProt Q2Q167); assay: HCV core protein dimerization inhibitors, dose response, biochemical, TR-FRET (AID 2159); design: species or system Hepacivirus hominis;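 note: blocks dimerization of HCV core protein measured by TR-FRET between tagged core106 pairs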
# [3] = target: Photoreceptor-specific nuclear receptor (Homo sapiens, UniProt Q9Y5X4); assay: NR2E3 inverse agonists, dose response, biochemical, TR-FRET (AID 463256); format: functional
# [4] = target: Peroxisome proliferator-activated receptor gamma/Nuclear receptor corepressor 2 (Homo sapiens, UniProt P37231+Q9Y618); assay: Counterscreen for NR2E3 inverse agonists: TR-FRET-based biochemical high throughput dose response assay to identify inverse agonists of the interaction between peroxisome proliferator-activated receptor gamma (PPARg) and nuclear receptor co-repressor 2 (NCOR2).; format: functional
# Beta-galactosidase = Beta-galactosidase (Escherichia coli, UniProt Q8VNN2); assay: Dose response counterscreen for EBI2 assay utilizing the enzyme, b-galactosidase.; format: functional
# [5] = microbe, parasite or virus in culture; format: functional; details: Mycobacterium tuberculosis
# [6] = M. tuberculosis growth inhibition, HTS (AID 449762); format: functional
# [7] = target: Induced myeloid leukemia cell differentiation protein Mcl-1 (Homo sapiens, UniProt Q07820); format: functional
# Protein Tat = Protein Tat (Human immunodeficiency virus type 1 group M subtype B (isolate HXB2)(HIV-1), UniProt P04608); format: functional;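 note: tat binding to TAR RNA read out by fluorescence polarization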
# [8] = target: Sphingosine 1-phosphate receptor 2 (Homo sapiens, UniProt O95136); assay: Dose Response Cell Based Assay for Agonists of the S1P2 Receptor. [Related pubchem assays: 729, 736, 843 ]; format: functional
# NADPH oxidase 1 [9] = target: T2, NADPH oxidase 1 (Homo sapiens, UniProt Q9Y5S8); assay: Late-stage luminescence-based cell-based dose response assay to identify inhibitors of NADPH oxidase 1 (NOX1): Synthesized analogs 2.; format: functional
# [10] = Fluorescence Cell-Based Dose Response to Identify Inhibitors of Thrombin Receptor-Activating Peptide SFLLRN-Mediated P-Selectin Induction on Platelets. [Related pubchem assays: 1663 (Primary HTS), 1889 (retest at dose ), 1891 (counterscreen), 1678 (Project Summary)]; format: functional
# [11] = Luminescence Cell-Based Dose Confirmation HTS to Identify Inhibitors of Platelet Dense Granule Release. [Related pubchem assays: 1663 (Primary HTS), 1678 (Summary of Project)]; format: functional
# [12] = target: Luciferin 4-monooxygenase (Photinus pyralis, UniProt P08659); assay: firefly luciferase enzyme inhibitors, dose response, biochemical, luminescence (AID 1891)
# NADPH oxidase 1 [13] = target: T2, NADPH oxidase 1; assay: Late-stage luminescence-based cell-based dose response assay to identify inhibitors of NADPH oxidase 1 (NOX1): Synthesized analogs 3.; format: functional
# [14] = inhibitors of Bluetongue virus cytopathic effect, confirmation, arbovirus, BSR cells (AID 1250); format: functional;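 note: protection from viral cytopathic effect measured as cell viability by ATP luminescence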
# [15] = LGR2 antagonists, dose response, cell-based, HEK293, CRE-luciferase reporter, cherry pick, set 2 (AID 743343); format: functional;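 note: transfected cells were stimulated with diluted bursicon conditioned medium after compound addition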
# [16] = HEK293 cell cytotoxicity, dose response, cytotoxicity control, plate reader, cherry-picked samples (AID 743446); format: functional, cell-based
# [17] = A549 cell cytotoxicity, dose response, cytotoxicity control, cherry-picks, 26 µM top dose (AID 1053119); format: functional, cell-based
# [18] = P. falciparum Dd2 growth inhibitors, dose response, SYBR Green, dry powder samples, set 9 (AID 1159568); format: functional, cell-based
# [19] = A549 cell cytotoxicity, dose response, cytotoxicity control, plate reader, cherry-pick, antagonist series (AID 743412); format: functional, cell-based
# [20] = HepG2 cell cytotoxicity, dose response, cytotoxicity control, cherry-picks, set 5 (AID 1053118); format: functional, cell-based
# [21] = CEM21 lymphoblast cell cytotoxicity, dose response, cytotoxicity control for viral fusion inhibitor project, CellTiter-Glo luminescence, cherry-picked (AID 652042); format: functional, cell-based;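 note: potency for signal decrease meaning cytotoxicity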
# [22] = MC4R antagonists, dose response, counter-screen for LGR2 antagonist project, cell-based, plate reader, cherry pick (AID 743444); format: functional;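 note: transfected HEK 293 cells stimulated with alpha-MSH peptide; potency of inhibitors of the alpha-MSH evoked signal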
# [23] = HepG2 cell cytotoxicity, dose response, cytotoxicity control, plate reader, cherry-pick, antagonist series (AID 743416); format: functional, cell-based
# T1 sequence (Q9UBE0 whole entry): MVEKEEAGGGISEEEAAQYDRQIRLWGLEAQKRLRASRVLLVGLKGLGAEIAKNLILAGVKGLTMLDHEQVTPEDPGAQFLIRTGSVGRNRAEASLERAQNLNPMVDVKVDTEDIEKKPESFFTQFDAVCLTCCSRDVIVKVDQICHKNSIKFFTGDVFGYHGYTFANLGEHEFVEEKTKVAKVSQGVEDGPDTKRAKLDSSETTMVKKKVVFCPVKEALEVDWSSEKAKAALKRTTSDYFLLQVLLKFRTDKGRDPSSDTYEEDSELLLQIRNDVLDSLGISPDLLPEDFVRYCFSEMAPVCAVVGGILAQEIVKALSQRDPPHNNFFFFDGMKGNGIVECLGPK
# T1 sequence (Q9UBT2 whole entry): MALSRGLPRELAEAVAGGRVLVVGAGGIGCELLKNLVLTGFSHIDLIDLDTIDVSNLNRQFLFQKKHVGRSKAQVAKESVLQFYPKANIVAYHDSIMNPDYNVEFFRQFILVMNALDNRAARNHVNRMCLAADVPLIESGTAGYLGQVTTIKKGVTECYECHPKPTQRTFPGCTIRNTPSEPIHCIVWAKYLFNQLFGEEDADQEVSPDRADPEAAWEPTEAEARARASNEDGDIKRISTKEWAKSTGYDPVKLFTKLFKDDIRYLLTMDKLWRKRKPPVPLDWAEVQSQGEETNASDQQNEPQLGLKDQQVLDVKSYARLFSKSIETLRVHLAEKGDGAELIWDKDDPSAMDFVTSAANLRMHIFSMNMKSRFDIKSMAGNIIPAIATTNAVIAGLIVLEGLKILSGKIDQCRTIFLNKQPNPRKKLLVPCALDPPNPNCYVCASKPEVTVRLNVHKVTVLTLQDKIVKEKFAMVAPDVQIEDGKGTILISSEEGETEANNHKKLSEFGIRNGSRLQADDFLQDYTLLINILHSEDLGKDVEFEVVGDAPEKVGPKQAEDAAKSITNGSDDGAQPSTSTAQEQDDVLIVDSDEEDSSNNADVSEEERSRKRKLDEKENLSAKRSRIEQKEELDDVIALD
# T2 sequence (Q9Y5S8 whole entry): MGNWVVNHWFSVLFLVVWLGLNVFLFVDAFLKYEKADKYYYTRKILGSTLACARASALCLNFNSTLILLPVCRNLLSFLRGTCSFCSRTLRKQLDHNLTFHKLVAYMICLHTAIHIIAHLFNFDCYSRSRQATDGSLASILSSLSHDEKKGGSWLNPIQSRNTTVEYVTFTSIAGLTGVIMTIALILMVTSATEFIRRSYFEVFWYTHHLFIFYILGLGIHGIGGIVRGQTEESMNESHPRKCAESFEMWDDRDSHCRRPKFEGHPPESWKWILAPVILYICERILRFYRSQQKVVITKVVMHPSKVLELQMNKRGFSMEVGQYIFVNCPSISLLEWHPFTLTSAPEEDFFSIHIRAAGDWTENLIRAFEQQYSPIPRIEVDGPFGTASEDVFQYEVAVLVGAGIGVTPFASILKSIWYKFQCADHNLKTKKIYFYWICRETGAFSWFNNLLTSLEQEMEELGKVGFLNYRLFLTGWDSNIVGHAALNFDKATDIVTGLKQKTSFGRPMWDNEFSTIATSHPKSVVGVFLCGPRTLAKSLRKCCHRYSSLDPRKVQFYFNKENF
# Sequence of Peroxisome proliferator-activated receptor gamma/Nuclear receptor corepressor 2 (P37231 whole entry): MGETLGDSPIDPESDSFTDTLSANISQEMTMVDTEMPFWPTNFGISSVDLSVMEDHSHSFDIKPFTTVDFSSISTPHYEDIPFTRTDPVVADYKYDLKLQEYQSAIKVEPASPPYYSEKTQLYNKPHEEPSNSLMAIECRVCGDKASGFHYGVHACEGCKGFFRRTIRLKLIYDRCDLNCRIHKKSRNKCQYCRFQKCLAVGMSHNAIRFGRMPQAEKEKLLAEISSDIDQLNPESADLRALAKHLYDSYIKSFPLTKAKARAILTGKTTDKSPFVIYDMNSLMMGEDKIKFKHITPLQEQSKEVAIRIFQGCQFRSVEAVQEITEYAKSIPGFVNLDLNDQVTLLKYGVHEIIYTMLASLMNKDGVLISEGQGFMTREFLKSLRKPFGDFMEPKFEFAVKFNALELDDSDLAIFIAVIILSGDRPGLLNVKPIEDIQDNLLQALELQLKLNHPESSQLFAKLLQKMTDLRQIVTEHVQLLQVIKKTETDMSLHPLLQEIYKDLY
# Sequence of Peroxisome proliferator-activated receptor gamma/Nuclear receptor corepressor 2 (Q9Y618 whole entry): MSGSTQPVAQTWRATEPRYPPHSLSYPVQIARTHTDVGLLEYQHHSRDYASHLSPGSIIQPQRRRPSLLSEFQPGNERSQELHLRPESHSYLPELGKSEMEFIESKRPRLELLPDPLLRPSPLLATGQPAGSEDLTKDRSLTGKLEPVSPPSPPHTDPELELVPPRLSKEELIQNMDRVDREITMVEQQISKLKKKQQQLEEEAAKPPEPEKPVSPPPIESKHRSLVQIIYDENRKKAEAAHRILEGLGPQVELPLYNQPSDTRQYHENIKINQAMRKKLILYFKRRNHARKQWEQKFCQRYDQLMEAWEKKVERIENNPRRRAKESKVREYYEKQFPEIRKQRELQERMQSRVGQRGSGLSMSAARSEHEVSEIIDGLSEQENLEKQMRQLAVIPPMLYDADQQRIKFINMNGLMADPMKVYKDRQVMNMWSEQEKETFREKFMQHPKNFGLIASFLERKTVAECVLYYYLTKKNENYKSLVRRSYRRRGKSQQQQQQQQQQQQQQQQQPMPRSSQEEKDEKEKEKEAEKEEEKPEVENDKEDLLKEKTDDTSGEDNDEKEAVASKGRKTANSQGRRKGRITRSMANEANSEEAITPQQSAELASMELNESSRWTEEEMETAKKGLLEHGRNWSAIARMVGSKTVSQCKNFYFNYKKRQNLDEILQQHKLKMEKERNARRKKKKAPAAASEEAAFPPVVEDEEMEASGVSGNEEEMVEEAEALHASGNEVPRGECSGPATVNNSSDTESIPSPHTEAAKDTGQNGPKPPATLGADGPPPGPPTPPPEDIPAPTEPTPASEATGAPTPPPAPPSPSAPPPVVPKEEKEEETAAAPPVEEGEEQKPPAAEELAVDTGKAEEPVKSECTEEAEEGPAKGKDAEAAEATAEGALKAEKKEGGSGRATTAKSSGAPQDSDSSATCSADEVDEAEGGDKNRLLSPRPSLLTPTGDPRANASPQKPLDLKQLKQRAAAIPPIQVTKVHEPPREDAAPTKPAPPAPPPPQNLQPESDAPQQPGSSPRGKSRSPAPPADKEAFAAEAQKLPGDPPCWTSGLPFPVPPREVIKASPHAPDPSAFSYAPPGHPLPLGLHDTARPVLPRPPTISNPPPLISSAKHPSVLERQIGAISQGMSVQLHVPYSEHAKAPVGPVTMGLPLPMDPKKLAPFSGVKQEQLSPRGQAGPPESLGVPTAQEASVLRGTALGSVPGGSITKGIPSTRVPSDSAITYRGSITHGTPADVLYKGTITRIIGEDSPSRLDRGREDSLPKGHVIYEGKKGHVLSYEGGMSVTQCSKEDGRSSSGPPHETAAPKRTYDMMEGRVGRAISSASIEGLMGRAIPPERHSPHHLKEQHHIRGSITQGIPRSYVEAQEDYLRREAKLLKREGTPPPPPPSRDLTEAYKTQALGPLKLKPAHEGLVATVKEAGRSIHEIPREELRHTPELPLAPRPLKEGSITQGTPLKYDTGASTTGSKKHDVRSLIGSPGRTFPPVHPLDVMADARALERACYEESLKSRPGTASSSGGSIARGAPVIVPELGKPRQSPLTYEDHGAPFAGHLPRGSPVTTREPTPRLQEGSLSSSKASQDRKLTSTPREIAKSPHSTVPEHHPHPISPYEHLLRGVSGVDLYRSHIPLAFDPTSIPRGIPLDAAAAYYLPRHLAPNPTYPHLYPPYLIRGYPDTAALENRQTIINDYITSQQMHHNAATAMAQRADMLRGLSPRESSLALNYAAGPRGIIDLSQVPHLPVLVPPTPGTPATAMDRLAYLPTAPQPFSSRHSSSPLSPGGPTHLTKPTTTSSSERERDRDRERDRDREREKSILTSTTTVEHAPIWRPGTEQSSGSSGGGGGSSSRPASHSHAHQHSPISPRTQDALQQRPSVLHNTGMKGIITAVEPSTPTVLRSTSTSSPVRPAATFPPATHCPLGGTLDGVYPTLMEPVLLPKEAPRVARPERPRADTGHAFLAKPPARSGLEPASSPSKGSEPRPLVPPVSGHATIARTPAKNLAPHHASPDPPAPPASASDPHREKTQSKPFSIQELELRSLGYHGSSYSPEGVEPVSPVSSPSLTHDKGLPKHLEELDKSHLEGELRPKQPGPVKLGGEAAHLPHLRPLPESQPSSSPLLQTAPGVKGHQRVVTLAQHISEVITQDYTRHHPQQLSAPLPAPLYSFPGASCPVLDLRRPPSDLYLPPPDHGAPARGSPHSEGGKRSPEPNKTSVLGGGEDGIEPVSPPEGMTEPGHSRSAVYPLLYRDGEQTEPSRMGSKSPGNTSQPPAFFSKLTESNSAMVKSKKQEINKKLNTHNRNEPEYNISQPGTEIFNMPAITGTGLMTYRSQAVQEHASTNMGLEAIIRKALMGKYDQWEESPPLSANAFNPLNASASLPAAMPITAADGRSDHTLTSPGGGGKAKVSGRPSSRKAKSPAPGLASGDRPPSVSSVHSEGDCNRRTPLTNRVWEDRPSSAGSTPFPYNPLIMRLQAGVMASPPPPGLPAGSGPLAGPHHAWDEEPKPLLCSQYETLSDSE
# Sequence of Photoreceptor-specific nuclear receptor (Q9Y5X4 whole entry): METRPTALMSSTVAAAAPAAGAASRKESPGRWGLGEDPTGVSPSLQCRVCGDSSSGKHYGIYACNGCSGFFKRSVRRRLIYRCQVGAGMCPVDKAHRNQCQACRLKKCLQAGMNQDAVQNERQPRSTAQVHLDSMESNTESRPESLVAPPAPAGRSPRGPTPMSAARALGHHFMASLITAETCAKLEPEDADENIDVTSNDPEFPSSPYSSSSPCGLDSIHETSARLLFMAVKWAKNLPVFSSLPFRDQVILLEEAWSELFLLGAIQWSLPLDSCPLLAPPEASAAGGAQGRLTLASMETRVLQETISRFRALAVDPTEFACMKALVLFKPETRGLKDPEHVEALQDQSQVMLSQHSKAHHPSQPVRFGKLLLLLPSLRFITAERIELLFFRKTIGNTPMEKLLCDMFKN
# Sequence of Protein Tat (P04608 whole entry): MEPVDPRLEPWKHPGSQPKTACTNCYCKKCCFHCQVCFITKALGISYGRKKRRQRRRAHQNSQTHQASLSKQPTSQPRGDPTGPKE
compound,measurement,setting,value
COc1ccccc1/C=C/C=c1\sc2nc(=O)c(Cc3ccccc3)nn2c1=O,IC50,SUMO-activating enzyme [1],8.53 µM (active)
same,IC50,SUMO-activating enzyme [2],11.8 µM (active)
same,IC50,Genome polyprotein,> 49.8 µM (not active)
Cc1cc(C)nc(NS(=O)(=O)c2ccc(NC(=O)CSc3nc[nH]n3)cc2)n1,IC50,[3],> 39.8 µM (not active)
same,IC50,[4],> 39.8 µM (not active)
O=C(c1cc2cc(Cl)ccc2[nH]1)N1CCN(Cc2ccc3c(c2)OCO3)CC1,IC50,Beta-galactosidase,> 80 µM (inactive)
same,CC50,[5],> 40 µM (active)
same,IC50,[6],> 100 µM (active)
CN(C)c1ccc(/C=N/N(Cc2ccccc2)c2ccccc2)cc1,IC50,[7],1.52 µM (not active)
COc1ccccc1N1C(=O)CC(Nc2ccc(N3CCOCC3)cc2)C1=O (stereo unspecified),IC50,Protein Tat,20.1 µM (inconclusive)
CCOC(=O)c1c(C)n(C)c2ccc(OCC(O)Cn3nc(C)cc3C)cc12 (stereo unspecified),EC50,[8],4.71 µM (active)
CN1c2ccc(Br)cc2Sc2cc(Br)ccc21,IC50,NADPH oxidase 1 [9],> 50 µM (not active)
CCc1ccc(S(=O)(=O)N/N=C\c2ccc([N+](=O)[O-])o2)cc1,EC50,[10],< 30 µM (active)
same,EC50,[11],2.02 µM (active)
same,EC50,[12],> 112 µM (not active)
CN1c2ccccc2Sc2cc(C(=O)c3ccccc3)ccc21,IC50,NADPH oxidase 1 [13],> 20 µM (not active)
N#Cc1c(O)nc(SCC(=O)Nc2nnc(C(F)(F)F)s2)nc1-c1ccccc1,IC50,[14],28.1 µM (active)
O=C(C[C@@H]1C[C@@H]2c3cc(NC(=O)c4ccc5c(c4)OCO5)ccc3O[C@@H]2[C@@H](CO)O1)NCc1ccc(Oc2ccccc2)cc1,AC50,[15],33.3 µM (active)
same,AC50,[16],24.7 µM (active)
same,AC50,[17],30.2 µM (active)
same,AC50,[18],5.69 µM (active)
same,AC50,[19],21.2 µM (active)
same,AC50,[20],37.1 µM (active)
same,AC50,[21],26.1 µM (active)
same,AC50,[22],7.28 µM (active)
same,AC50,[23],27.7 µM (active)
